{
  "source": "patent US8324156B2",
  "about": "“Oral insulin therapies and protocol” (Emisphere Technologies, Inc., priority 2003, dated 2012)",
  "key": {"blood glucose [1]": {"test_system": "blood glucose", "details": "oral sulfonylureas; cited from earlier work"}, "[2]": {"details": "cited from earlier work; for time to peak plasma/serum drug concentration (tmax): fasting or immediately prior to a meal"}, "blood glucose [3]": {"test_system": "blood glucose", "details": "marketed insulin preparations; cited from earlier work"}, "Sprague-Dawley rats": {"test_system": "Sprague-Dawley rats", "assay": "Oral repeated dose toxicity studies in rats", "assay_type": "in vivo, rat", "protocol": "(§1) Toxicology studies were also conducted in rats and monkeys to assess the potential toxicity of 4-CNAB, alone or in combination with insulin. Based on the 14-day oral repeated dose toxicity studies, the NOAEL (No-Adverse Effect Level) was estimated to be 500 mg/kg in Sprague-Dawley rats, and 400 mg/kg in rhesus monkeys. […] Developmental and reproductive toxicology studies have not yet been conducted."}, "[4]": {"assay": "Moisture content / hygroscopicity of 4-CNAB", "assay_type": "physicochemical", "details": "below 75% RH"}, "receptors": {"test_system": "receptors", "assay": "Receptor binding screening assays", "protocol": "Insulin/4-CNAB capsules were evaluated by Emisphere Technologies, Inc. in a nonclinical program that included pharmacological screening, pharmacokinetic and metabolic profiles, and toxicity assessments in rats and monkeys. […] Similarly, for a fixed oral dose of 4-CNAB, insulin absorption increased with increasing doses of insulin."}, "rhesus monkeys": {"test_system": "rhesus monkeys", "assay": "Oral repeated dose toxicity studies in monkeys", "assay_type": "in vivo, rhesus monkey", "protocol": "as §1"}, "[5]": {"assay": "Plasma 4-CNAB concentration (Example 1)", "assay_type": "in vivo, human", "details": "after start of meal intake; 200 mg or 400 mg 4-CNAB capsules", "protocol": "During each treatment session, blood samples were collected for determination of plasma concentrations of 4-CNAB, insulin and C-peptide, and for blood glucose concentration. Sampling started 1 hour before intake of the test meal and continued until 6 hours thereafter. Blood samples were drawn via a venous cannula and collected related to the start of the test meal at time point 0. The timing of scheduled samples could be adjusted according to clinical needs or needs for pharmacokinetic data. The duration of each session was approximately 8-9 hours. All experiments were performed after an overnight fast of approximately 12 hours.\nBlood samples for determination of 4-CNAB plasma concentrations (2 mL in sodium heparin tube) were drawn 10, 20, 30, 40, 60, 90, 120, 240 and 360 minutes after start of meal intake (9 samples per session). Blood samples for determination of insulin and C-peptide plasma concentrations (5 mL in sodium heparin tube) were drawn at −60 and −30 minutes, at time 0 (start of meal intake), and after 10, 20, 30, 40, 50, 60, 75, 90, 105, 120, 150, 180, 210, 240, 300, and 360 minutes (19 samples per session). Plasma concentrations of insulin were determined by a GLP-validated microparticle enzyme immunoassay (MEIA).\nBlood samples for the determination of plasma concentrations of insulin, 4-CNAB and C-peptide were collected at defined intervals, as discussed above. […]"}, "Genotoxicity studies": {"assay": "Genotoxicity studies", "details": "four genotoxicity studies", "protocol": "as §1"}, "[6]": {"details": "dosed three times daily before meals"}},
  "note": "Read-outs that look alike come from different tables or passages of the source.",
  "data": [
    {"compound": "CC(=O)c1ccc(S(=O)(=O)NC(=O)NC2CCCCC2)cc1", "note": "[Acetohexamide]", "values": [
      {"measurement": "onset of action", "setting": "blood glucose [1]", "value": 1, "unit": "h"}
    ]},
    {"compound": "Cc1ccc(S(=O)(=O)NC(=O)NN2CCCCCC2)cc1", "note": "[Tolazamide]", "values": [
      {"measurement": "onset of action", "setting": "blood glucose [1]", "value": "4 to 6", "unit": "h"}
    ]},
    {"compound": "CCCCNC(=O)NS(=O)(=O)c1ccc(C)cc1", "note": "[tolbutamide]", "values": [
      {"measurement": "duration of action", "setting": "blood glucose [1]", "value": "6 to 12", "unit": "h"},
      {"measurement": "onset of action", "setting": "blood glucose [1]", "value": 1, "unit": "h"}
    ]},
    {"compound": "CCc1ccc(CCOc2ccc(CC3SC(=O)NC3=O)cc2)nc1", "note": "(stereo not drawn) [ACTOS® thiazolidinedione, pioglitazone]", "values": [
      {"measurement": "first measurable in serum", "setting": "[2]; oral, fasting state", "value": "≤ 30", "unit": "min"},
      {"measurement": "time to peak plasma/serum drug concentration (tmax)", "setting": "[2]; oral", "value": "≤ 2", "unit": "h"}
    ]},
    {"compound": "Glargine insulin: long-acting insulin", "values": [
      {"measurement": "duration of activity", "setting": "blood glucose [3]", "value": 24, "unit": "h"},
      {"measurement": "peak time of effect", "setting": "blood glucose [3]", "value": "no peak effect"}
    ]},
    {"compound": "CN(CCOc1ccc(CC2SC(=O)NC2=O)cc1)c1ccccn1", "note": "(stereo not drawn) [AVANDIA® thiazolidinedione, rosiglitazone]", "values": [
      {"measurement": "time to peak concentration with food", "setting": "[2]; food effect", "value": "about 1.75 hours"},
      {"measurement": "time to peak plasma/serum drug concentration (tmax)", "setting": "[2]; oral", "value": "≤ 1", "unit": "h"}
    ]},
    {"compound": "CCOc1cc(CC(=O)N[C@@H](CC(C)C)c2ccccc2N2CCCCC2)ccc1C(=O)O", "note": "[repaglinide]", "values": [
      {"measurement": "decrease in AUC when given with food", "setting": "[2]; food effect", "value": 12.4, "unit": "%"},
      {"measurement": "decrease in Cmax when given with food", "setting": "[2]; food effect", "value": 20, "unit": "%"},
      {"measurement": "time to peak plasma/serum drug concentration (tmax)", "setting": "[2]; oral", "value": "≤ 1", "unit": "h"}
    ]},
    {"compound": "CCCNC(=O)NS(=O)(=O)c1ccc(Cl)cc1", "note": "[Chlorpropamide]", "values": [
      {"measurement": "duration of action", "setting": "blood glucose [1]", "value": 72, "unit": "h"},
      {"measurement": "onset of action", "setting": "blood glucose [1]", "value": "one"}
    ]},
    {"compound": "COc1ccc(Cl)cc1C(=O)NCCc1ccc(S(=O)(=O)NC(=O)NC2CCCCC2)cc1", "note": "[glyburide]", "values": [
      {"measurement": "duration of action", "setting": "blood glucose [1]", "value": "18 to 24", "unit": "h"},
      {"measurement": "onset of action", "setting": "blood glucose [1]", "value": 1.5, "unit": "h"}
    ]},
    {"compound": "Ultralente insulin", "values": [
      {"measurement": "onset of action", "setting": "blood glucose [3]", "value": "2 to 4", "unit": "h"},
      {"measurement": "peak time of effect", "setting": "blood glucose [3]", "value": "8 to 20", "unit": "h"}
    ]},
    {"compound": "O=C([O-])CCCNC(=O)c1ccc(Cl)cc1O.[Na+]", "note": "[4-CNAB, sodium N-[4-(4-chloro-2 hydroxybenzoyl)amino]butyrate]", "values": [
      {"measurement": "NOAEL (No-Adverse Effect Level)", "setting": "Sprague-Dawley rats; 14-day oral repeated dose, Sprague-Dawley rats, 4-CNAB alone or in combination with insulin", "value": 500, "unit": "mg/kg"},
      {"measurement": "NOAEL", "setting": "Sprague-Dawley rats; 90-day oral repeated dose, rats", "value": 250, "unit": "mg/kg"},
      {"measurement": "residual moisture content", "setting": "[4]", "value": "< 0.5", "unit": "%"},
      {"measurement": "inherent pharmacological activity", "setting": "receptors", "value": "no inherent pharmacological activity"},
      {"measurement": "NOAEL (No-Adverse Effect Level)", "setting": "rhesus monkeys; 14-day oral repeated dose, rhesus monkeys", "value": 400, "unit": "mg/kg"},
      {"measurement": "NOAEL", "setting": "rhesus monkeys; 90-day oral repeated dose, monkeys", "value": 600, "unit": "mg/kg"},
      {"measurement": "plasma 4-CNAB concentration after 2 hours relative to the levels seen after 10 minutes", "setting": "[5]", "value": "less than 10%"},
      {"measurement": "genotoxicity findings", "setting": "Genotoxicity studies", "value": "no positive findings"}
    ]},
    {"compound": "Lantus®", "values": [
      {"measurement": "duration of activity", "setting": "blood glucose [3]", "value": "up to 24 hours"}
    ]},
    {"compound": "Cc1cnc(C(=O)NCCc2ccc(S(=O)(=O)NC(=O)NC3CCCCC3)cc2)cn1", "note": "[Glipizide]", "values": [
      {"measurement": "duration of action", "setting": "blood glucose [1]", "value": "10 to 24", "unit": "h"},
      {"measurement": "onset of action", "setting": "blood glucose [1]", "value": "one"}
    ]},
    {"compound": "CC(C)[C@H]1CC[C@H](C(=O)N[C@H](Cc2ccccc2)C(=O)O)CC1", "note": "[nateglinide]", "values": [
      {"measurement": "time to stimulation of pancreatic insulin secretion", "setting": "[2]; after oral administration", "value": "≤ 20", "unit": "min"},
      {"measurement": "fall of plasma insulin to baseline after dosing", "setting": "[2]; [6]", "value": "≤ 4", "unit": "h"},
      {"measurement": "time of peak plasma insulin levels after dosing", "setting": "[2]; [6]", "value": "~1", "unit": "h"},
      {"measurement": "time to peak plasma/serum drug concentration (tmax)", "setting": "[2]; oral", "value": "one"}
    ]},
    {"compound": "CCC1=C(C)CN(C(=O)NCCc2ccc(S(=O)(=O)NC(=O)N[C@H]3CC[C@H](C)CC3)cc2)C1=O", "note": "[Glimepiride]", "values": [
      {"measurement": "duration of action", "setting": "blood glucose [1]", "value": "18 to 28", "unit": "h"},
      {"measurement": "onset of action", "setting": "blood glucose [1]", "value": 2, "unit": "h"}
    ]}
  ]
}
